According to publication PMC3145970, “Specific CLK Inhibitors from a Novel Chemotype for Regulation of Alternative Splicing” (Chemistry & Biology, 2011):
Read-outs that look alike come from different tables or passages of the source.

Key:
Test in all cases: Thermal stability shift assay
Format in all cases: binding
BARK2 = molecular target: T1, BARK2 (Homo sapiens, UniProt P35626); details: read-out: Tm shift BARK2
T1 sequence (P35626 1-688): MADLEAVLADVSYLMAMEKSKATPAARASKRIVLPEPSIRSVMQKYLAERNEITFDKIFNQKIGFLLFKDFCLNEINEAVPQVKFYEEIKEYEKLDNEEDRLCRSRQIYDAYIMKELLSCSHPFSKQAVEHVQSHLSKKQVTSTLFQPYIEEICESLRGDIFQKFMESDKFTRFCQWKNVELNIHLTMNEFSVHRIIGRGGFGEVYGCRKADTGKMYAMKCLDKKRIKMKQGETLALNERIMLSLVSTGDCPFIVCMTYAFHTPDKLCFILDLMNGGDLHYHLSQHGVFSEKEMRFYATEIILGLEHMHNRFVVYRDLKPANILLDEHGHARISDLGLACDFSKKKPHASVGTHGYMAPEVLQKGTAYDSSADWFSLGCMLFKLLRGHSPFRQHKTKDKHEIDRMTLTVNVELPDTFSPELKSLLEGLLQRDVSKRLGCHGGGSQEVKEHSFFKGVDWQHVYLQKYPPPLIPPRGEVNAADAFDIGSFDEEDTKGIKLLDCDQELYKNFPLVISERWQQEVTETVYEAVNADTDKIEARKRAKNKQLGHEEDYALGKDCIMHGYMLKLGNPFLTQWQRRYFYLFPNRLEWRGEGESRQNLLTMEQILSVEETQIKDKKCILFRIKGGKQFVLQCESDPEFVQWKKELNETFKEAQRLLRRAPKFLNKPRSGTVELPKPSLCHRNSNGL
Experimental: (§1) Thermal denaturation experiments were carried out in an Mx3005p real-time PCR machine (Agilent) using a protein concentration of 2 μM and an inhibitor concentration of 10 μM. Samples were buffered in 10 mM HEPES (pH 7.5), 500 mM NaCl and a 1:1000 dilution of SyproOrange (Invitrogen). The assay and data evaluation were carried out as described ([Bullock et al., 2005])

IKKb = molecular target: T2, IKKb (Homo sapiens, UniProt O14920); details: read-out: Tm shift IKKb
T2 construct: purchased in-house (SGC Oxford thermal shift panel)
T2 sequence (O14920 1-756): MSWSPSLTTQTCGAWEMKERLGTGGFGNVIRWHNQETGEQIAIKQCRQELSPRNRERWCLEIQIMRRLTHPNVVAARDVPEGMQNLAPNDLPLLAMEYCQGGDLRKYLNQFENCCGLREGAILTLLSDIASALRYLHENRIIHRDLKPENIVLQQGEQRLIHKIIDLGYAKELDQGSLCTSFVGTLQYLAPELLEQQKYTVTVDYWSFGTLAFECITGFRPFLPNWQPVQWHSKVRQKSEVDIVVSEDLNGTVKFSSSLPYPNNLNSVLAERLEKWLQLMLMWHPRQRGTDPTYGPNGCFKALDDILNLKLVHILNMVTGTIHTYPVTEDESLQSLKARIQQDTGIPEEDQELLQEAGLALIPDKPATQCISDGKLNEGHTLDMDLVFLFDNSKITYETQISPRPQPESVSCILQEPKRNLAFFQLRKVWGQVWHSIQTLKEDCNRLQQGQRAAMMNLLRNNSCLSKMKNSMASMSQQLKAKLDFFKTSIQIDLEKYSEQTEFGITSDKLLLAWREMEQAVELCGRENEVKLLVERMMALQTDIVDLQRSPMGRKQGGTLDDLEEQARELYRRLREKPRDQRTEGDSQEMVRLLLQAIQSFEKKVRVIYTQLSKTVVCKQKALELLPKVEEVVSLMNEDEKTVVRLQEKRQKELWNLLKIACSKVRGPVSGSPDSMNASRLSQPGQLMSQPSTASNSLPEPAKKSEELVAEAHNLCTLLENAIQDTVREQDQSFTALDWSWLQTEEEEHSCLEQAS
Experimental: as §1

DCAMKL1 = molecular target: T3, DCAMKL1 (Homo sapiens, UniProt O15075); details: read-out: Tm shift DCAMKL1
T3 construct: purchased in-house (SGC Oxford thermal shift panel)
T3 sequence (O15075 1-740): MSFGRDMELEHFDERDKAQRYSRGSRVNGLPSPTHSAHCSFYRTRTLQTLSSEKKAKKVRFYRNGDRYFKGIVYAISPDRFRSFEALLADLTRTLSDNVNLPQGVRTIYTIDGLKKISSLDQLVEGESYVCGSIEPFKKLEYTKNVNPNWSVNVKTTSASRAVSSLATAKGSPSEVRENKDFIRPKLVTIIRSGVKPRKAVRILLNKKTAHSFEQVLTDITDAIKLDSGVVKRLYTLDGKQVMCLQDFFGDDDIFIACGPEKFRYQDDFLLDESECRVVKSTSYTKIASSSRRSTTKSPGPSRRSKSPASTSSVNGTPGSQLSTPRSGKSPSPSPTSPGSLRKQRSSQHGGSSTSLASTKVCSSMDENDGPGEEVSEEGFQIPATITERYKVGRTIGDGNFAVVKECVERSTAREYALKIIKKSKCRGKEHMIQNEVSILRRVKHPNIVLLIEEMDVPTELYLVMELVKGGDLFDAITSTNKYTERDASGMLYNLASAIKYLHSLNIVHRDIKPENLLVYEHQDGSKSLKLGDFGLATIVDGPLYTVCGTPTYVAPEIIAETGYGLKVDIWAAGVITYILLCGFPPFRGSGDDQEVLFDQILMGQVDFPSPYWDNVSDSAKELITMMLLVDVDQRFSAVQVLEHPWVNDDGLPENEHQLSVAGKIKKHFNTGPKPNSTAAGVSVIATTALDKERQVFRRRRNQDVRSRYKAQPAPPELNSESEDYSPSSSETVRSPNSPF
Experimental: as §1

| SMILES | ΔTm at 10 µM (BARK2; inhibitor 10 μM) | ΔTm at 10 µM (IKKb; inhibitor 10 μM) | ΔTm at 10 µM (DCAMKL1; inhibitor 10 μM) | ΔTm at 10 µM (BARK2) | ΔTm at 10 µM (IKKb) | ΔTm at 10 µM (DCAMKL1) |
| --- | --- | --- | --- | --- | --- | --- |
| CCOC(=O)c1c(C(C#N)=CN(C)C)c2ccc(Cl)c(Cl)c2n1C (mixture of isomers) [compound 2, (E/Z)-Ethyl 6,7-Dichloro-3-[1-Cyano-2-(Dimethylamino)Vinyl]-1-Methyl-1H-Indole-2-Carboxylate] | 0.2 °C | 0.6 °C | 0.7 °C |  |  |  |
| NC1=NC(=O)/C(=C2\CCNC(=O)c3[nH]c(Br)cc32)N1 [Hymenialdisine, hymenialdisine, reference compound] | -0.3 °C | 0.7 °C | 0.5 °C |  |  |  |
| CCOC(=O)c1c(C(C#N)=CN)c2ccc(Cl)c(Cl)c2n1C (mixture of isomers) [KH-CB20, (E/Z)-Ethyl 3-(2-Amino-1-Cyanovinyl)-6,7-Dichloro-1-Methyl-1H-Indole-2-Carboxylate] |  |  |  | -0.1 °C | 0.1 °C | -0.1 °C |
| CCOC(=O)c1c(/C(C#N)=C\N)c2ccc(Cl)c(Cl)c2n1C [KH-CB19, (E)-Ethyl 3-(2-Amino-1-Cyanovinyl)-6,7-Dichloro-1-Methyl-1H-Indole-2-Carboxylate] |  |  |  | -0.4 °C | -0.1 °C | -0.2 °C |
| Cn1c2c(Cl)c(Cl)ccc2c2c(C#N)c[nH]c(=O)c21 [compound 3, 7,8-Dichloro-9-Methyl-1-Oxo-2,9-Dihydro-1H-Pyrido[3,4-b]Indole-4-Carbonitrile] | 0.3 °C | 0.5 °C | 0 °C |  |  |  |
